Source: patent US20060063784A1, “Method of using substituted pyrazolo [1,5-a] pyrimidines” (priority 2004, published 2006)
Where two headings read alike, the source gives them in different places.

Columns and labels:
[1] = test system: 80S14 (p21-deficient) cells; test: Cytotoxicity assay using isogenic cell lines: IC50 in 80S14 (p21-deficient) cells, SRB; type: cell-based, human
How it was run: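 80S14 (p21-deficient) cells seeded at 12,000 cells/well overnight, then exposed 5 days at 37 °C to serial dilutions (5 pM–50 μM or 170 pg/ml–10 μg/ml). TCA-fixed, sulforhodamine B-stained, absorbance at 560 nm; IC50 taken from cytotoxicity curves versus untreated controls.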

[2] = test system: LoVo Colon cell line; test: Cytotoxicity assay using LoVo colon cell line, SRB; type: cell-based; details: read-out: Inhibition of LoVo
How it was run: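 LoVo cells (4000/well, RPMI 1640 with 10% FBS, 37 °C, 7% CO2) seeded overnight, then exposed 4 days to serial dilutions spanning 5 pM-20 μM or 170 pg/ml-10 μg/ml. Survival by SRB staining; IC50 from curves relative to untreated controls.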

[3] = Homo sapiens, 120 h, 80S14 p21-deficient cells, 5 days incubation, SRB, read-out: IC50 for 80SI4
[4] = Homo sapiens, 96 h, LoVo colon cells, 4 days incubation, SRB
[5] = Homo sapiens, 120 h, 80S14 (p21-deficient) cells, 5 days, SRB, class symbols, read-out: IC50 for 80S14
[6] = Homo sapiens, 96 h, Cellular activity in LoVo cell, 4 days incubation, SRB
[7] = Cellular activity in LoVo cell, 4 days incubation, SRB

Row | Compound | IC50 [1, 5] | IC50 [2, 6] | also measured
1 | O=C(Nc1cccc(-c2ccnc3c(C(=O)c4cccs4)cnn23)c1)c1cccs1 [Example 51, N-{3-[3-(thien-2-ylcarbonyl)pyrazolo[1,5-a]pyrimidin-7-yl]phenyl}thiophene-2-carboxamide] |  |  | IC50 [1, 3]: < 1 µM; IC50 [2, 4]: < 0.1 µM
2 | O=C(CC1CCNCC1)Nc1cccc(-c2ccnc3c(C(=O)c4cccs4)cnn23)c1 [Example 393, 2-Piperidin-4-yl-N-{3-[3-(thien-2-ylcarbonyl)pyrazolo[1,5-a]pyrimidin-7-yl]phenyl}acetamide] | 1 to 10 µM | 0.1 to 1 µM | 
3 | O=C(c1cccs1)c1cnn2c(-c3cccc(NCC4CC=CCC4)c3)ccnc12 (stereo not shown) [Example 436, (7-{3-[(cyclohex-3-en-1-ylmethyl)amino]phenyl}pyrazolo[1,5-a]pyrimidin-3-yl)-(thien-2-yl)-methanone] | < 1 µM | < 0.1 µM | 
4 | O=C(CCc1ccncc1)Nc1cccc(-c2ccnc3c(C(=O)c4cccs4)cnn23)c1 [Example 440, 3-Pyridin-4-yl-N-{3-[3-(thien-2-ylcarbonyl)pyrazolo[1,5-a]pyrimidin-7-yl]phenyl}propanamide] | 1 to 10 µM | 0.1 to 1 µM | 
5 | O=C(Nc1cccc(-c2ccnc3c(C(=O)c4cccs4)cnn23)c1)OCCCl [Example 22] |  |  | IC50 ([1]; 80S14 p21-deficient cells, 5 days incubation, SRB, read-out: IC50 for 80SI4): < 1 µM; IC50 ([2]; LoVo colon cells, 4 days incubation, SRB): < 0.1 µM
6 | CCCCOC(=O)Nc1cccc(-c2ccnc3c(C(=O)c4cccs4)cnn23)c1 [Example 13, butyl 3-[3-(thien-2-ylcarbonyl)pyrazolo[1,5-a]pyrimidin-7-yl]phenylcarbamate] |  |  | IC50 ([1]; Homo sapiens, 80S14, 120 h, read-out: IC50 for 80SI4 (uM)): < 1 µM; IC50 ([2]; Homo sapiens, LoVo, 96 h): < 0.1 µM
7 | CCCCNc1cccc(-c2ccnc3c(C(=O)c4cccs4)cnn23)c1 [Example 380, {7-[3-(Butylamino)phenyl]pyrazolo[1,5-a]pyrimidin-3-yl}(thien-2-yl)methanone] | < 1 µM | < 0.1 µM | 
8 | O=C(Nc1cccc(-c2ccnc3c(C(=O)c4cccs4)cnn23)c1)c1cn[nH]c1 [Example 441, N-{3-[3-(Thien-2-ylcarbonyl)pyrazolo[1,5-a]pyrimidin-7-yl]phenyl}-1H-pyrazole-4-carboxamide] | 10 to 50 µM | 1 to 20 µM | 
9 | Cc1cnc2c(C(=O)c3cccs3)cnn2c1-c1cccc(NC(=O)OC(C)C)c1 [Example 211, isopropyl 3-[6-methyl-3-(thien-2-ylcarbonyl)pyrazolo[1,5-a]pyrimidin-7-yl]phenylcarbamate] |  |  | IC50 [1, 3]: 10 to 50 µM; IC50 [2, 4]: 1 to 2 µM
10 | CC(C)Cn1nnc(-c2cccc(-c3ccnc4c(C(=O)c5cccs5)cnn34)c2)n1 [Example 504, {7-[3-(2-Isobutyl-2H-tetraazol-5-yl)phenyl]pyrazolo[1,5-a]pyrimidin-3-yl}(thien-2-yl)methanone] | < 1 µM | 0.1 to 1 µM | 
11 | O=C(Nc1cc(-c2ccnc3c(C(=O)c4cccs4)cnn23)ccc1Cl)c1ccccc1 [Example 312, N-{2-Chloro-5-[3-(2-thienylcarbonyl)pyrazolo[1,5-a]pyrimidin-7-yl]phenyl}benzamide] | < 1 µM | < 0.1 µM | 
12 | O=C(Nc1cccc(-c2ccnc3c(C(=O)c4cccs4)cnn23)c1)NC1CCCCC1 [Example 353, N-Cyclohexyl-N′-{3-[3-(thien-2-ylcarbonyl)pyrazolo[1,5-a]pyrimidin-7-yl]phenyl}urea] | < 1 µM |  | IC50 [2, 7]: < 0.1 µM
13 | CCCCC(CC)CNc1cccc(-c2ccnc3c(C(=O)c4cccs4)cnn23)c1 (stereo not shown) [Example 419, (7-{3-[(2-Ethylhexyl)amino]phenyl}pyrazolo[1,5-a]pyrimidin-3-yl)(thien-2-yl)methanone] | 1 to 10 µM | 1 to 20 µM | 
14 | O=C(CC1CCCC1)Nc1cccc(-c2ccnc3c(C(=O)c4ccco4)cnn23)c1 [Example 303, 2-Cyclopentyl-N-{3-[3-(2-furoyl)pyrazolo[1,5-a]pyrimidin-7-yl]phenyl}acetamide] | < 1 µM | < 0.1 µM | 
15 | O=C(Nc1cccc(-c2ccnc3c(C(=O)c4cccs4)cnn23)c1)c1c(F)cccc1F [Example 359, 2,6-Difluoro-N-{3-[3-(thien-2-ylcarbonyl)pyrazolo[1,5-a]pyrimidin-7-yl]phenyl}benzamide] | < 1 µM | < 0.1 µM | 
16 | O=C(CCCN1CCOCC1)Nc1cccc(-c2ccnc3c(C(=O)c4cccs4)cnn23)c1 [Example 423, 4-Morpholin-4-yl-N-{3-[3-(thien-2-ylcarbonyl)pyrazolo[1,5-a]pyrimidin-7-yl]phenyl}butanamide] | 1 to 10 µM | 0.1 to 1 µM | 

Row | Compound | IC50 [1, 5] | IC50 [2, 6] | also measured
17 | CC(=O)c1cccc(-c2cnn3c(-c4cccc(NC(=O)CC(C)C)c4)ccnc23)c1 [Example 483, N-{3-[3-(3-Acetylphenyl)pyrazolo[1,5-a]pyrimidin-7-yl]phenyl}-3-methylbutanamide] | 10 to 50 µM | 1 to 20 µM | 
18 | CC(C)(C)COC(=O)Nc1cccc(-c2ccnc3c(C(=O)c4cccs4)cnn23)c1 [Example 17, neopentyl 3-[3-(thien-2-ylcarbonyl)pyrazolo[1,5-a]pyrimidin-7-yl]phenylcarbamate] |  |  | IC50 [1, 3]: < 1 µM; IC50 [2, 4]: < 0.1 µM
19 | O=C(c1cccs1)c1cnn2c(-c3ccc(F)c(-c4ccc(CO)cc4)c3)ccnc12 [Example 455, {7-[6-Fluoro-4′-(hydroxymethyl)-1,1′-biphenyl-3-yl]pyrazolo[1,5-a]pyrimidin-3-yl}(thien-2-yl)methanone] | 1 to 10 µM | 0.1 to 1 µM | 
20 | C/C=C/CNc1cccc(-c2ccnc3c(C(=O)c4cccs4)cnn23)c1 [Example 370, (7-{3-[(2E)-But-2-enylamino]phenyl}pyrazolo[1,5-a]pyrimidin-3-yl)(thien-2-yl)methanone] | < 1 µM | < 0.1 µM | 
21 | CC(C)CC(=O)Nc1cccc(-c2ccnc3c(-c4cccc(C(F)(F)F)c4)cnn23)c1 [Example 477, 3-Methyl-N-(3-{3-[3-(trifluoromethyl)phenyl]pyrazolo[1,5-a]pyrimidin-7-yl}phenyl)butanamide] | 10 to 50 µM | 1 to 20 µM | 
22 | O=C(Nc1cccc(-c2ccnc3c(C(=O)c4cccs4)cnn23)c1)OC1CCOCC1 [Example 176, tetrahydro-2H-pyran-4-yl 3-[3-(thien-2-ylcarbonyl)pyrazolo[1,5-a]pyrimidin-7-yl]phenylcarbamate] |  |  | IC50 [1, 3]: < 1 µM; IC50 [2, 4]: < 0.1 µM
23 | CC(C)CC(=O)Nc1cccc(-c2ccnc3c(-c4cccc(C=O)c4)cnn23)c1 [Example 487, N-{3-[3-(3-Formylphenyl)pyrazolo[1,5-a]pyrimidin-7-yl]phenyl}-3-methylbutanamide] | 10 to 50 µM | 1 to 20 µM | 
24 | CN(C)c1ccc(-c2ccnc3c(C(=O)c4cccs4)cnn23)cc1NC(=O)c1ccccc1Cl [Example 421, 2-Chloro-N-{2-(dimethylamino)-5-[3-(thien-2-ylcarbonyl)pyrazolo[1,5-a]pyrimidin-7-yl]phenyl}benzamide] | < 1 µM | 0.1 to 1 µM | 
25 | CCNc1cccc(-c2ccnc3c(C(=O)c4cccs4)cnn23)c1 [Example 422, {7-[3-(Ethylamino)phenyl]pyrazolo[1,5-a]pyrimidin-3-yl}(thien-2-yl)methanone] | 1 to 10 µM | 0.1 to 1 µM | 
26 | O=C(Nc1cccc(-c2ccnc3c(C(=O)c4cccs4)cnn23)c1)NC1CCCCC1 [Example 3, N-cyclohexyl-N′-{3-[3-(thien-2-ylcarbonyl)pyrazolo[1,5-a]pyrimidin-7-yl]phenyl}urea] |  |  | IC50 [1, 3]: < 1 µM; IC50 [2, 4]: < 0.1 µM
27 | [7-[3-(2-Methyl-1H-imidazol-1-yl)phenyl]-pyrazolo[1,5-a]pyrimidin-3-vy]-2-thienyl-methanone [Example 245] |  |  | IC50 ([1]; 80S14 (p21-deficient) cells, 5 days, SRB, class symbols, read-out: IC50 for 80S14): 10 to 50 µM; IC50 [2, 7]: 1 to 20 µM
28 | CC(C)CC(=O)Nc1cccc(-c2ccnc3c(-c4cccc(C#N)c4)cnn23)c1 [Example 482, N-{3-[3-(3-Cyanophenyl)pyrazolo[1,5-a]pyrimidin-7-yl]phenyl}-3-methylbutanamide] | 10 to 50 µM | 1 to 20 µM | 
29 | O=C(Nc1cccc(-c2ccnc3c(C(=O)c4cccs4)cnn23)c1)OCCCCCl [Example 26, 4-chlorobutyl 3-[3-(thien-2-ylcarbonyl)pyrazolo[1,5-a]pyrimidin-7-yl]phenylcarbamate] |  |  | IC50 [1, 3]: < 1 µM; IC50 [2, 4]: < 0.1 µM
30 | Nc1cc(-c2ccnc3c(C(=O)c4cccs4)cnn23)cs1 [Example 331, [7-(5-Aminothien-3-yl)pyrazolo[1,5-a]pyrimidin-3-yl](thien-2-yl)methanone] | 1 to 10 µM | 1 to 20 µM | 
31 | COc1ccc(-c2cnn3c(-c4cccc(NC(=O)CC(C)C)c4)ccnc23)cc1 [Example 470, N-{3-[3-(4-Methoxyphenyl)pyrazolo[1,5-a]pyrimidin-7-yl]phenyl}-3-methylbutanamide] | 10 to 50 µM | 1 to 20 µM | 
32 | CC(CC(=O)Nc1cc(-c2ccnc3c(C(=O)c4cccs4)cnn23)ccc1F)C(F)(F)F (stereo not shown) [Example 356, 4,4,4-Trifluoro-N-{2-fluoro-5-[3-(thien-2-ylcarbonyl)pyrazolo[1,5-a]pyrimidin-7-yl]phenyl}-3-methylbutanamide] | < 1 µM | < 0.1 µM | 
